The test system of data set [1] is methicillin-resistant Staphylococcus aureus (MRSA) clinical isolates. Kind of data set: Broth microdilution MIC, clinical MRSA isolates. The format is cell-based. Particulars: 24 h, 0.08–40 μM. The procedure, abridged:
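S. aureus and E. faecium clinical isolates (Debrecen, 2018–2020; MALDI-TOF-identified) tested by EUCAST broth microdilution in Mueller–Hinton broth at 5.0 × 10^5 CFU/mL across 0.08–40 μM (twofold). After 24 h at 37 °C, visually read; MIC is the lowest concentration giving ≥50% inhibition versus growth control. At least two runs in duplicate.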
On the technique in general: Dilution methods test growth across graded concentrations, often in twofold steps.

Data set [2] in a line: Distribution coefficient (logD), n-octanol-PBS. The format is physicochemical. To be noted: n-octanol-PBS (pH = 7.4) system. The method, then: The logD values of the newly synthesized complexes were determined according to a procedure described in our previous publications. page 64: Ir-7b +1.17 Rh-7b +1.41 Ru-7c +1.31 Os-7c +1.59 Ir-7c +1.40 Rh-7c +1.13 Ru-7d +1.26 Os-7d +1.42 Ir-7d +1.30 Rh-7d +1.04 Ru-7e +2.22 Os-7e +2.21 Ir-7e +1.39 Rh-7e +1.66 *logD was determined in an n-octanol-PBS (pH = 7.4) system 64 (14 pictures or pasted objects on this page, not shown here)

The test system of data set [3] is Staphylococcus aureus (ATCC29213). Kind of data set: Broth microdilution MIC, reference strain. Particulars: 24 h, 0.08–40 μM, read-out: MIC S. aureus ATCC 29213. The format is cell-based. The procedure, abridged: (§1)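 EUCAST broth microdilution in Mueller–Hinton broth, inoculum 5.0 × 10^5 CFU/mL, compounds at 0.08–40 μM (twofold dilutions), 24 h at 37 °C. Plates read visually; MIC taken as lowest concentration giving ≥50% inhibition versus drug-free growth control.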

Data set [4] has as its system Enterococcus faecalis (ATCC29212). Kind of data set: Broth microdilution MIC, reference strain. To be noted: 24 h, tested range 0.08–40 μM, read-out: MIC E. faecalis ATCC 29,212. The data set is classed as cell-based. The procedure, abridged:
as §1

In the next data set the test system is U251 cells. Nature of the data set: SRB assay, 48 h. The format is cell-based. The protocol: (§2) Figure 8 Assessment of free ligand 3a and complex Ru-3a for cytostatic activity in multiple carcinomas. […] Cells were treated with the compounds in the concentrations indicated for 48 h; then, an SRB assay was performed. Data are represented as average ± SD from three biological replicates; individual assays were performed in duplicates. Values were normalized for vehicle-treated cells; absorbance for vehicle-treated cells equals 1. Statistical significance was assessed using a one-way ANOVA test comparing all values to the lowest concentration of a compound. Before the test, normality was assessed using the Shapiro–Wilk test, and the post hoc test was chosen accordingly. […] An SRB assay measures protein content of cells in correlation with the cell number in an assay well and can therefore be used to assess cell proliferation or long-term cytostasis. Cells were seeded in 96-well plates the day before the assay. Cells were treated with the compounds for 48 h. Then medium was removed, and cells were fixed with 10% trichloroacetic acid. […] Stained cells were washed in 1% acetic acid 5 times; acetic acid was removed, and cells were left to dry. Protein-bound SRB was released by adding 100 μL 10 mM Tris base. Plates were measured in a plate photometer (Thermo Scientific Multiscan GO spectrophotometer, Waltham, MA, USA) at 540 nm. On each plate, wells were designed to contain vehicle-treated cells. […] Statistical analysis was performed using version 8.0.1 of GraphPad Prism. Values were tested for normal distribution using the Shapiro–Wilk normality test. […] In other cases, the percentage of inhibition was taken for the maximum concentration (100 μM).

The next data set concerns MCF7 cells. Kind of data set: SRB assay, 48 h. The data set is classed as cell-based. The protocol:
as §2
On the technique in general: The SRB assay estimates cell density from bound dye.

A further data set has as its system Capan2 cells. Kind of data set: SRB assay, 48 h. The data set is classed as cell-based. The protocol:
as §2

Another data set concerns ID8 cells. Nature of the data set: SRB assay, 48 h. The format is cell-based. The method, then:
as §2

For the next data set, the system named is A2780 cells. Nature of the data set: MTT reduction assay, early toxicity, 4 h treatment. The format is cell-based. The procedure, abridged: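 Cells plated the day before, exposed to compounds for 4 h, then MTT 0.5 mg/mL for 40–60 min at 37 °C; reduced dye dissolved in DMSO, read at 540 nm relative to vehicle wells. IC50 by four-parameter fit; otherwise % inhibition at 100 μM.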

Where two headings read alike, the source gives them in different places. Where only a bound is given, the exact number is not on record here.

Take `Cc1ccc(C(C)C)cc1.F[P-](F)(F)(F)(F)F.N[C@@H]1[C@@H](OCc2ccccc2)[C@H](OCc2ccccc2)[C@@H](COCc2ccccc2)O[C@H]1c1ccccn1.[Cl][Ru+]` [Ru-3a]: the MIC (commonly the smallest concentration in the dilution series that meets the test's criterion for growth inhibition) in [1] (clinical isolate 20,426 MRSA, read-out: MIC 20,426 MRSA) is listed as 5 µM; in data set [1] (clinical isolate 24,035 MRSA, read-out: MIC 24,035 MRSA), 5 µM; in data set [1] (clinical isolate 24,268 MRSA, read-out: MIC 24,268 MRSA), 5 µM; in data set [1] (clinical isolate 24,272 MRSA, read-out: MIC 24,272 MRSA), 5 µM; in data set [1] (clinical isolate 24,328 MRSA, read-out: MIC 24,328 MRSA) it was 5 µM; in [1] (clinical isolate 24,408 MRSA, read-out: MIC 24,408 MRSA), 5 µM. Moreover, the MIC worked out at 5 µM in data set [3] and 10 µM in data set [4]. For the same molecule, in [2], the logD (commonly the decadic logarithm of the distribution of all forms, ionised or not, between an organic phase and buffer at a given pH) is given as 2.72. Besides, the IC50 – broadly, the concentration at which inhibition is half-maximal – in the data set with U251 cells is 3.97 µM; in the data set with MCF7 cells, 2.3 µM; in the data set on Capan2 cells it was 2.25 µM; in the data set on ID8 cells it was 2.54 µM; in the data set with A2780 cells it was 8.02 µM. Also, the “U251 SRB Max Inhibition” value with U251 cells is given as over 90%. Further, the “MCF7 SRB Max Inhibition” value in the data set with MCF7 cells was over 90%. In the data set on Capan2 cells, the “Capan2 SRB Max Inhibition” value is reported as over 90%. Also, the “ID8 SRB Max Inhibition” value with ID8 cells is over 90%. Moreover, the “A2780 MTT Max Inhibition” value in the data set with A2780 cells (inhibition at maximum concentration (100 μM) where no plateau, ND = not detectable) is given as over 90%.

The record behind these values is paper PMC10096180, “Half-Sandwich Type Platinum-Group Metal Complexes of C-Glucosaminyl Azines: Synthesis and Antineoplastic and Antimicrobial Activities” (Molecules, 2023).
